Measured values as given in patent publication US20250228835A1, “PYRIDINYLOXYPYRIDINES AND RELATED COMPOUNDS AND THEIR USE IN TREATING MEDICAL CONDITIONS” (Rectify Pharmaceuticals, Inc., priority 2024, published 2025).
Where two headings read alike, the source gives them in different places.

Legend:
Type in all cases: cell-based
ABCC6 WT = target: T1, ABCC6 WT (Homo sapiens, UniProt O95255); assay: ABCC6 WT assay: HiBit protein expression; conditions: HEK-293 cells transiently expressing HiBit-tagged ABCC6 WT; 24 h treatment; top concentration 20 μM; read-out: ABCC6 WT EC50, Emax
T1 construct: expressed in transfected cells; host or cells: HEK-293 (transient, Lipofectamine 2000)
T1 sequence (O95255 whole entry): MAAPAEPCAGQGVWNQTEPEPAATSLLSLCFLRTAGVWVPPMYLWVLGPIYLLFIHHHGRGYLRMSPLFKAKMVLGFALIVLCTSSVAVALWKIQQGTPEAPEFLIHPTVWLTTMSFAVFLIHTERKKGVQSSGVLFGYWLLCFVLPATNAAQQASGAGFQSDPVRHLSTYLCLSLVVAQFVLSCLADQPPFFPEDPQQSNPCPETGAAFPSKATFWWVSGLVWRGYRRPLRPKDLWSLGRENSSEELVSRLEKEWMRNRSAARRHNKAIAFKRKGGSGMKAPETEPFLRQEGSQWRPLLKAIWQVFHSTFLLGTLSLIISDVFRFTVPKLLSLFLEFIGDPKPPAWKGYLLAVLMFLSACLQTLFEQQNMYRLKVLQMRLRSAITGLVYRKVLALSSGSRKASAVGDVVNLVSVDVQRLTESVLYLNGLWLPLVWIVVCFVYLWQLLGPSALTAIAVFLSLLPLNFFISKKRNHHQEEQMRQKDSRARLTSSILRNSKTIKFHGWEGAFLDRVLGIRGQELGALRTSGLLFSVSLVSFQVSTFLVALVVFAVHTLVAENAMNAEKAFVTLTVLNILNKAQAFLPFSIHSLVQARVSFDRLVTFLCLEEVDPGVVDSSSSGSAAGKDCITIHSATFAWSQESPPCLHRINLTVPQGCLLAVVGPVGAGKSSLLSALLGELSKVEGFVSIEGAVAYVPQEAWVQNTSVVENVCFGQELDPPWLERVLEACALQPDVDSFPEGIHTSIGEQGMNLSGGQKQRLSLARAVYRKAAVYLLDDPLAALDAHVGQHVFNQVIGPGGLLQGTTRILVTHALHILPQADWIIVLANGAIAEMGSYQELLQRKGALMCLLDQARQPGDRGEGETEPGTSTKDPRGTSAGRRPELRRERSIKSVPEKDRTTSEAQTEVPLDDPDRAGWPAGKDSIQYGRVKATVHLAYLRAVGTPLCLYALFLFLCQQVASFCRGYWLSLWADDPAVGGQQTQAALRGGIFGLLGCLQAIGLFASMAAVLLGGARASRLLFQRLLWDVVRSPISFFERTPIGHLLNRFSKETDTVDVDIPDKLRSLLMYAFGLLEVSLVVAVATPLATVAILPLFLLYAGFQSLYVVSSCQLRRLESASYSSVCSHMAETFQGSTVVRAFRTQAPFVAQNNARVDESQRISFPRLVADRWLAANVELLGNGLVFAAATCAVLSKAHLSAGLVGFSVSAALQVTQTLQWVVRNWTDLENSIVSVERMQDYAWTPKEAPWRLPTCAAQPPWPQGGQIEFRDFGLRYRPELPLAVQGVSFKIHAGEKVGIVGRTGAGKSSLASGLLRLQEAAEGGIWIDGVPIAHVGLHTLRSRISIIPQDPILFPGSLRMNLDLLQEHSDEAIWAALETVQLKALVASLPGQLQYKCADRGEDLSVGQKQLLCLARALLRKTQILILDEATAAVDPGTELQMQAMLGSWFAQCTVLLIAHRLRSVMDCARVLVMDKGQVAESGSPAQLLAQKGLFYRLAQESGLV
Summary of the method: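 HEK-293 cells transiently transfected with HiBit-tagged human ABCC6 WT cDNA, seeded 24 h post-transfection, treated 24 h at 37° C with ten 2-fold doses (top 20 μM final, 0.15% DMSO). HiBit lytic luminescence reports protein expression; Emax and EC50 derived.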

ABCB4 WT = target: T2, ABCB4 WT (Homo sapiens, UniProt P21439); assay: ABCB4 WT assay: HiBit protein expression; conditions: HEK-293 cells stably expressing HiBit-tagged ABCB4 WT; 24 h treatment; top concentration 30 μM; read-out: ABCB4 WT EC50, Emax
T2 construct: expressed in transfected cells
T2 sequence (P21439 whole entry): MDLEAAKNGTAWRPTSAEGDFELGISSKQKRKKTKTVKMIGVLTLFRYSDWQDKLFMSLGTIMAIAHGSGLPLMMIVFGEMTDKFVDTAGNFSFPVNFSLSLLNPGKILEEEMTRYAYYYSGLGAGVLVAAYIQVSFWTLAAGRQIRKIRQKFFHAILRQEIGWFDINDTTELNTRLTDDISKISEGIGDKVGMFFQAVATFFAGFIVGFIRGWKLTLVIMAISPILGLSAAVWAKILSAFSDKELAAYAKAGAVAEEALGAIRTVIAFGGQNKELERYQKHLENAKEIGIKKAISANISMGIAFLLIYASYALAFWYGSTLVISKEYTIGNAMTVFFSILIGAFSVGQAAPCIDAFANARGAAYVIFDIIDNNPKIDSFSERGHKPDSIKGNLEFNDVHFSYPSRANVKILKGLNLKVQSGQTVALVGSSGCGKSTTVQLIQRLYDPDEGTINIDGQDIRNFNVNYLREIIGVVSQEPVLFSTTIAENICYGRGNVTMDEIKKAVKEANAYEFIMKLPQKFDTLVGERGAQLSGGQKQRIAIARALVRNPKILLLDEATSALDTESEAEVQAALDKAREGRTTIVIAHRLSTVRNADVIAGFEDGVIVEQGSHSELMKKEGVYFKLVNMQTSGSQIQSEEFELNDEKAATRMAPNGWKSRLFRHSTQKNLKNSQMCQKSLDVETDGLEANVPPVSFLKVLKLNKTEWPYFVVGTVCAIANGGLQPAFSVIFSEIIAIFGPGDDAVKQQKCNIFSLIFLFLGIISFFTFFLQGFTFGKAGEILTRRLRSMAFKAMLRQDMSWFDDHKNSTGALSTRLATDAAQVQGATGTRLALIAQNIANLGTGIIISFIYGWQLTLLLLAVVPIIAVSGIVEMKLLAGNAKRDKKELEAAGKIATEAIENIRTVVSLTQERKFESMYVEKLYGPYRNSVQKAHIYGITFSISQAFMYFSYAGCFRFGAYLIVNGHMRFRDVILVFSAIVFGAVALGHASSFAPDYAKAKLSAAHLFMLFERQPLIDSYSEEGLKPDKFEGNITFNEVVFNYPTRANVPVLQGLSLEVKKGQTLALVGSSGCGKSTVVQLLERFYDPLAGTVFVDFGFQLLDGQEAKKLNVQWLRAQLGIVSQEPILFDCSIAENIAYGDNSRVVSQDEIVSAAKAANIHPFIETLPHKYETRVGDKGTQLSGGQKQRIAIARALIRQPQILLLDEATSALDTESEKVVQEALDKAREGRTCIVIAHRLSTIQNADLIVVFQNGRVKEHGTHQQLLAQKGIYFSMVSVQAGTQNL
Summary of the method: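 HEK-293 cells stably expressing HiBit-tagged human ABCB4 WT, treated 24 h at 37 °C with 11-dose 3-fold dilutions, top final 30 μM in 0.3% DMSO. HiBit lytic reagent luminescence read after 1 h at 25 °C; Emax and EC50 derived.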

ABCA4 P1380L = target: T3, ABCA4 P1380L (Homo sapiens, UniProt P78363, P1380L); assay: A4 correction dose-response assay: ABCA4 P1380L HiBit protein expression; conditions: HEK-293 cells stably expressing HiBit-tagged ABCA4 P1380L, 24 h treatment, top concentration 30 μM
T3 construct: expressed in transfected cells
T3 sequence (P78363 whole entry P1380L): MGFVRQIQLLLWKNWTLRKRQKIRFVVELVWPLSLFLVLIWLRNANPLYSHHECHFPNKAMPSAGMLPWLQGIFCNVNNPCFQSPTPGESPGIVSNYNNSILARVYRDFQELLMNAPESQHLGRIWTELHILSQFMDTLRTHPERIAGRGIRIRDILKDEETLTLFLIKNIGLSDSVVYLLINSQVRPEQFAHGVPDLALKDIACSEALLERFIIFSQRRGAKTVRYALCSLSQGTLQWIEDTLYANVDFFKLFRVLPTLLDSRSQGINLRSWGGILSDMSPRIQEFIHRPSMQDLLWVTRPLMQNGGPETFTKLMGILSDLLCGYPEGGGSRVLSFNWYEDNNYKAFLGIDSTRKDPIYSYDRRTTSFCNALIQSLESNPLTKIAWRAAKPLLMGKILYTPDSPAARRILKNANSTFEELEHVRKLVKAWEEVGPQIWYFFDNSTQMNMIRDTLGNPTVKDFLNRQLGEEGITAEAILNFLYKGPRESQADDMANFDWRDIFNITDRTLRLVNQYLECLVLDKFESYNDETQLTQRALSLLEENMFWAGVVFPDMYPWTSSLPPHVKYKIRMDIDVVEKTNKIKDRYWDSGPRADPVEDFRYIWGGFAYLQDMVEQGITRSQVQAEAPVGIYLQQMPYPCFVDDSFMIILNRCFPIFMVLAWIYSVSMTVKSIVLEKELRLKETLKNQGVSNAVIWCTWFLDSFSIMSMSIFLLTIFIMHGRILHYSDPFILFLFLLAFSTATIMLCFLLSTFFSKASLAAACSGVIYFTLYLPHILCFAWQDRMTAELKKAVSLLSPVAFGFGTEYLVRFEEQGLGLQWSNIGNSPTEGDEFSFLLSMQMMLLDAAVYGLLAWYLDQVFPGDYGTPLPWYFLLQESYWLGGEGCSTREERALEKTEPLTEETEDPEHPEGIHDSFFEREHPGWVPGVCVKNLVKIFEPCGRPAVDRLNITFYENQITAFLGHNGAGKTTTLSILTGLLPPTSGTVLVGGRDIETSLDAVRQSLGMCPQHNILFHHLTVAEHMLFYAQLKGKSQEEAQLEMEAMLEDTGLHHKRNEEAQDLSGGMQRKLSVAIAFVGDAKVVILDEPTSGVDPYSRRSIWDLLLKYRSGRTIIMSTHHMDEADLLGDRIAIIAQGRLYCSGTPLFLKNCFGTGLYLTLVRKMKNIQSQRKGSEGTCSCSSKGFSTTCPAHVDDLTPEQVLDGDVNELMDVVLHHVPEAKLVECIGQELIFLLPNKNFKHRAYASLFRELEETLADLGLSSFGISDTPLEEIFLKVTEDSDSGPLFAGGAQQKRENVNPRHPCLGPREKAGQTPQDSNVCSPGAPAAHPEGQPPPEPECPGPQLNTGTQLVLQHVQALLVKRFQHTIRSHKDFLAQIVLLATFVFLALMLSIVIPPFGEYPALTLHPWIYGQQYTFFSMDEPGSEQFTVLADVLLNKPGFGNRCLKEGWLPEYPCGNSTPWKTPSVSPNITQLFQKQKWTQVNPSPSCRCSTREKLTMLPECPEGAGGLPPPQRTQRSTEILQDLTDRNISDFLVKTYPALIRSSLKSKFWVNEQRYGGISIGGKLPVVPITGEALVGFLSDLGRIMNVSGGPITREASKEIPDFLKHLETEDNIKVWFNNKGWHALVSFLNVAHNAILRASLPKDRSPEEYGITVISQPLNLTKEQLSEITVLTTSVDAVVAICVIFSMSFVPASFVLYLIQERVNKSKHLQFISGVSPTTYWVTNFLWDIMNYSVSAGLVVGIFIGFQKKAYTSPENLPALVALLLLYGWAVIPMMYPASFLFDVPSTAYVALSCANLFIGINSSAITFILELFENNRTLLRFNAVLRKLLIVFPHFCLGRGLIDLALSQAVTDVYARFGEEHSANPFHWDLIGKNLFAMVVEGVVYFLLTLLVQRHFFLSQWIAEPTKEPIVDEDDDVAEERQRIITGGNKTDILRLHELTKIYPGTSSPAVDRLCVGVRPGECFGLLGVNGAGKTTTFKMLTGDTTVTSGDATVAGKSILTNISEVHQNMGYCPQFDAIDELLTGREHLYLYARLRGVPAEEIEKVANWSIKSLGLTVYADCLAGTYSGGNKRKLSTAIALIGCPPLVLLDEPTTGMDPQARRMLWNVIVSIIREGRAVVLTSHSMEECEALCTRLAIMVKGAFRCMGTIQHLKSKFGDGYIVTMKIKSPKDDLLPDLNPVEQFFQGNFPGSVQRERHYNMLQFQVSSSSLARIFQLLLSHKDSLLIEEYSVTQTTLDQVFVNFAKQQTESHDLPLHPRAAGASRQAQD
Summary of the method: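 Cells transfected with HiBit-tagged human ABCA4 P1380L cDNA were treated for 24 h at 37°C with an eleven-point dilution series (top final 30 μM, 0.3% DMSO).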

[1] = read-out: ABCA4 P1380L EC50, Emax

Row | Compound | EC50 (ABCC6 WT) | EC50 (ABCB4 WT) | EC50 (ABCA4 P1380L; [1]) | EC50 (ABCA4 P1380L; ABCA4 P1380L EC50, Emax)
1 | Cc1cc(C)c(Oc2nc(N3CC4CC3CN4C(=O)C3CC3)ccc2NS(C)(=O)=O)c(C)c1 (single isomer, unassigned) [Compound I-18] | 1 to 10 µM | ≥ 25 µM | 10 to 25 µM | 
2 | Cc1cc(C)c(Oc2nc(N3CC4CC3CN4C(=O)C3CC3)ccc2NS(C)(=O)=O)c(C)c1 (single isomer, unassigned) [Compound I-19] | ≥ 25 µM | ≥ 25 µM | > 25 µM | 
3 | Cc1cc(C)c(Oc2nc(N3CCC(C#N)C3)ccc2NS(C)(=O)=O)c(C)c1 (single isomer, unassigned) [Compound I-261] | 1 to 10 µM | 1 to 10 µM | 10 to 25 µM | 
4 | Cc1cc(C)c(Oc2nc(N3CCC(C#N)C3)ccc2NS(C)(=O)=O)c(C)c1 (single isomer, unassigned) [Compound I-262] | 1 to 10 µM | 1 to 10 µM | 1 to 10 µM | 
5 | Cc1cc(C)c(Oc2nc(N3CCN(C(=O)C4CC4)CC3)ccc2NS(C)(=O)=O)c(C2CC2)n1 [Compound I-20] | 1 to 10 µM | ≥ 25 µM | > 25 µM | 
6 | Cc1cc(C)c(Oc2nc(N3CCn4c(C)nnc4C3)ccc2NS(C)(=O)=O)c(C)c1 [Compound I-21] | 1 to 10 µM | < 25 µM | > 25 µM | 
7 | Cc1cc(C)c(Oc2nc(N3CC4CC(C3)N4C(=O)C3CC3)ccc2NS(C)(=O)=O)c(C)c1 [Compound I-22] | 1 to 10 µM | 1 to 10 µM | 1 to 10 µM | 
8 | Cc1cc(C)c(Oc2nc(N3CCN(C(=O)C4COC4)CC3)ccc2NS(C)(=O)=O)c(C)c1 [Compound I-23] | 10 to 25 µM | 10 to 25 µM | 10 to 25 µM | 
9 | Cc1cc(C)c(Oc2nc(N3CCN(C(=O)C4CCC4)CC3)ccc2NS(C)(=O)=O)c(C)c1 [Compound I-24] | < 1 µM | < 1 µM | 1 to 10 µM | 
10 | Cc1cc(C)c(Oc2nc(N3CCC4(CN(C(=O)C5CC5)C4)C3)ccc2NS(C)(=O)=O)c(C)c1 [Compound I-25] | 1 to 10 µM | 1 to 10 µM | > 25 µM | 
11 | Cc1cc(C)c(Oc2nc(N3CCN(S(C)(=O)=O)CC3)ccc2NS(C)(=O)=O)c(C)c1 [Compound I-26] | ≥ 25 µM | 1 to 10 µM | > 25 µM | 
12 | CNC(=O)N1CCN(c2ccc(NS(C)(=O)=O)c(Oc3c(C)cc(C)cc3C)n2)CC1 [Compound I-27] | 10 to 25 µM | 10 to 25 µM | 1 to 10 µM | 
13 | Cc1cc(C2CC2)nc(C)c1Oc1nc(N2CCN(C(=O)C3CC3)CC2)ccc1NS(C)(=O)=O [Compound I-28] | ≥ 25 µM | 1 to 10 µM | 1 to 10 µM | 
14 | Cc1cc(C)c(Oc2nc(-c3cncc(Cl)c3)ccc2NS(=O)(=O)C(C)C)c(C)c1 [Compound I-29] | < 1 µM | ≥ 25 µM | > 25 µM | 
15 | Cc1cc(C)c(Oc2nc(N3CCn4c(cnc4C)C3)ccc2NS(C)(=O)=O)c(C)c1 [Compound I-30] | 1 to 10 µM | 1 to 10 µM | < 1 µM | 
16 | Cc1cc(C)c(Oc2nc(N3CC4(CCN(C(=O)C5CC5)C4)C3)ccc2NS(C)(=O)=O)c(C)c1 [Compound I-31] | 1 to 10 µM | ≥ 25 µM | > 25 µM | 
17 | Cc1cc(C)c(Oc2nc(N3CCN(C(=O)OC(C)C)CC3)ccc2NS(C)(=O)=O)c(C)c1 [Compound I-32] | 1 to 10 µM | ≥ 25 µM | 1 to 10 µM | 
18 | Cc1cc(C)c(Oc2nc(N3CCN(C(=O)N(C)C)CC3)ccc2NS(C)(=O)=O)c(C)c1 [Compound I-33] | 1 to 10 µM | 10 to 25 µM | > 25 µM | 
19 | Cc1cc(C)c(Oc2nc(N3CCN(C(=O)C(C)(C)C)CC3)ccc2NS(C)(=O)=O)c(C)c1 [Compound I-34] | 1 to 10 µM | 1 to 10 µM | 10 to 25 µM | 
20 | Cc1cc(C)c(Oc2nc(N3C4CC3CN(C(=O)C3CC3)C4)ccc2NS(C)(=O)=O)c(C)c1 [Compound I-35] | ≥ 25 µM | ≥ 25 µM | > 25 µM | 
21 | Cc1cc(C)c(Oc2nc(-c3cnc(C#N)c(Cl)c3)ccc2NS(C)(=O)=O)c(C)c1 [Compound I-36] | < 1 µM | ≥ 25 µM | < 1 µM | 
22 | Cc1cc(C2CC2)nc(C)c1Oc1nc(-c2cncc(Cl)c2)ccc1NS(C)(=O)=O [Compound I-37] | < 1 µM | < 1 µM | < 1 µM | 
23 | Cc1cc(C)c(Oc2nc(N3CC4(CN(C(=O)C5CC5)C4)C3)ccc2NS(C)(=O)=O)c(C)c1 [Compound I-38] | ≥ 25 µM | ≥ 25 µM | > 25 µM | 
24 | Cc1cc(C)c(Oc2nc(-c3cncc(C#N)c3)ccc2NS(C)(=O)=O)c(C)c1 [Compound I-39] | < 1 µM | < 1 µM | < 1 µM | 

Row | Compound | EC50 (ABCC6 WT) | EC50 (ABCB4 WT) | EC50 (ABCA4 P1380L; [1]) | EC50 (ABCA4 P1380L; ABCA4 P1380L EC50, Emax)
25 | Cc1cc(C)c(Oc2nc(-c3cncc(Cl)c3)ccc2NS(C)(=O)=O)c(C2CC2)n1 [Compound I-40] | < 1 µM | < 1 µM | < 1 µM | 
26 | Cc1cc(C)c(Oc2nc(-c3cncc(Cl)c3)ccc2NS(=O)(=O)C2COC2)c(C)c1 [Compound I-41] | < 1 µM | ≥ 25 µM | < 1 µM | 
27 | Cc1cc(C)c(Oc2nc(-c3cncc(Cl)c3)ccc2NS(=O)(=O)C2CC2)c(C)n1 [Compound I-238] | < 1 µM | < 25 µM | 1 to 10 µM | 
28 | Cc1cc(C)c(Oc2nc(-c3ccnc(C#N)c3)ccc2NS(C)(=O)=O)c(C)n1 [Compound I-239] | < 1 µM | < 25 µM | < 1 µM | 
29 | Cc1cc(C(F)(F)F)nc(C)c1Oc1nc(-c2cncc(C#N)c2)ccc1NS(C)(=O)=O [Compound I-240] | < 1 µM | < 1 µM | < 25 µM | 
30 | Cc1cc(C)c(Oc2nc(-c3cccc(C#N)n3)ccc2NS(C)(=O)=O)c(C)n1 [Compound I-241] | 10 to 25 µM | 10 to 25 µM | > 25 µM | 
31 | CCCS(=O)(=O)Nc1ccc(-c2cncc(C#N)c2)nc1Oc1c(C)cc(C)nc1C [Compound I-242] | < 1 µM | 1 to 10 µM | 1 to 10 µM | 
32 | Cc1cc(C)c(Oc2nc(-c3cncc(C#N)c3)ccc2NS(=O)(=O)C2CCC2)c(C)n1 [Compound I-243] | < 1 µM | < 1 µM | < 1 µM | 
33 | Cc1cc(C)c(Oc2nc(N3CCC(C#N)CC3)ccc2NS(C)(=O)=O)c(C)c1 [Compound I-244] | 1 to 10 µM | ≥ 25 µM | 10 to 25 µM | 
34 | Cc1cc(C)c(Oc2nc(-c3cncc(C#N)c3)ccc2S(=N)(=O)C2CC2)c(C)c1 (stereo not drawn) [Compound I-245] | < 1 µM | 1 to 10 µM | 1 to 10 µM | 
35 | Cc1cc(C)c(Oc2nc(-c3cncc(Cl)c3)ncc2NS(C)(=O)=O)c(C)n1 [Compound I-246] | < 1 µM | < 25 µM | < 1 µM | 
36 | CCS(=O)(=O)Nc1ccc(-c2cncc(C#N)c2)nc1Oc1c(C)cc(C)nc1C [Compound I-247] | < 1 µM | < 1 µM | < 1 µM | 
37 | Cc1cc(C)c(Oc2nc(-c3cncc(C#N)c3)ccc2S(=N)(=O)C2CC2)c(C)n1 (stereo not drawn) [Compound I-248] | 1 to 10 µM | 1 to 10 µM | 1 to 10 µM | 
38 | Cc1cc(C)c(Oc2nc(-c3cncc(C#N)c3)ccc2S(C)(=N)=O)c(C)n1 (stereo not drawn) [Compound I-249] | ≥ 25 µM | < 25 µM | > 25 µM | 
39 | Cc1cnc(Oc2nc(-c3cncc(C#N)c3)ccc2NS(C)(=O)=O)c(C)c1 [Compound I-250] | ≥ 25 µM | ≥ 25 µM | > 25 µM | 
40 | Cc1cc(C2CC2)nc(C)c1Oc1nc(-c2cncc(C#N)c2)ccc1S(C)(=N)=O (stereo not drawn) [Compound I-251] | 10 to 25 µM | ≥ 25 µM | > 25 µM | 
41 | Cc1cc(C2CC2)nc(C)c1Oc1nc(-c2cncc(C#N)c2)ccc1NS(=O)(=O)C1CCC1 [Compound I-252] | 1 to 10 µM | ≥ 25 µM | < 1 µM | 
42 | Cc1cc(C)c(Oc2nc(-c3cncc(C#N)c3)ccc2NS(=O)(=O)C2CCC2)c(C)c1 [Compound I-253] | 1 to 10 µM | 1 to 10 µM | < 25 µM | 
43 | Cc1cc(C2CC2)nc(C)c1Oc1nc(-n2cnc(C#N)c2)ccc1NS(C)(=O)=O [Compound I-254] | < 1 µM | < 25 µM | < 1 µM | 
44 | Cc1cc(C2CC2)nc(C)c1Oc1nc(-n2ccc(C#N)n2)ccc1NS(C)(=O)=O [Compound I-255] | 1 to 10 µM | ≥ 25 µM | > 25 µM | 
45 | Cc1cc(C2CC2)nc(C)c1Oc1nc(-n2cc(C#N)cn2)ccc1NS(C)(=O)=O [Compound I-256] | < 1 µM | < 1 µM | > 25 µM | 
46 | Cc1cc(C)c(Oc2nc(-n3ccc(C#N)n3)ccc2NS(C)(=O)=O)c(C)c1 [Compound I-257] | 1 to 10 µM | ≥ 25 µM | < 25 µM | 
47 | Cc1cc(C)c(Oc2nc(-c3cncc(C#N)c3)ccc2S(N)(=O)=O)c(C)n1 [Compound I-258] | 10 to 25 µM | < 25 µM |  | 1 to 10 µM
48 | Cc1cc(C)c(Oc2nc(-c3cncc(C#N)c3)cnc2NS(C)(=O)=O)c(C)n1 [Compound I-259] | 1 to 10 µM | ≥ 25 µM | < 25 µM | 
